From ChEMBL document CHEMBL2331543, “Optimization of heterocyclic substituted benzenesulfonamides as novel carbonic anhydrase IX inhibitors and their structure activity relationship” (Eur J Med Chem, 2013)

What was measured:
Carbonic anhydrase 2 = Carbonic anhydrase 2 (Homo sapiens, UniProt P00918); assay: Inhibition of recombinant human carbonic anhydrase 2 after 15 mins by stopped flow CO2 hydration assay
Carbonic anhydrase 1 = Carbonic anhydrase 1 (Homo sapiens, UniProt P00915); assay: Inhibition of recombinant human carbonic anhydrase 1 after 15 mins by stopped flow CO2 hydration assay
Sequence of Carbonic anhydrase 1 (P00915 whole entry): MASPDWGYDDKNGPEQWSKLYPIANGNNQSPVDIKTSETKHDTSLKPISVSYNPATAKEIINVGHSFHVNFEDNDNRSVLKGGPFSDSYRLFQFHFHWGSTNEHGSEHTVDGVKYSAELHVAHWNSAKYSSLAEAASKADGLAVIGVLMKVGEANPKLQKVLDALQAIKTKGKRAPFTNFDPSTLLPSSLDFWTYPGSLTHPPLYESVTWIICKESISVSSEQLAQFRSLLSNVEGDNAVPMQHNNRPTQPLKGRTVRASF

Carbonic anhydrase 9 = Carbonic anhydrase 9 (Homo sapiens, UniProt Q16790); assay: Inhibition of recombinant human carbonic anhydrase 9 after 15 mins by stopped flow CO2 hydration assay
Homo sapiens [1] = organism: Homo sapiens; assay: Selectivity ratio of IC50 for recombinant human carbonic anhydrase 2 to IC50 for recombinant human carbonic anhydrase 9
Homo sapiens [2] = organism: Homo sapiens; assay: Selectivity ratio of IC50 for recombinant human carbonic anhydrase 1 to IC50 for recombinant human carbonic anhydrase 9

For `NS(=O)(=O)c1cccc(Nc2nnc(-c3ccccc3)c3ccccc23)c1`, which IC50 (Carbonic anhydrase 2) is on record?
The IC50 was greater than 10000 nM.

And the IC50 (Carbonic anhydrase 1)?
Its IC50 is greater than 10000 nM.

And the IC50 (Carbonic anhydrase 9)?
The IC50 was greater than 690 nM.

With `CC(C)(C)c1ccc(Nc2nnc(-c3cccc(S(N)(=O)=O)c3)c3ccccc23)cc1` as the molecule, how does the IC50 (Carbonic anhydrase 2) read?
The IC50 was greater than 10000 nM.

And the Ratio IC50 (Homo sapiens [1])?
The Ratio IC50 was greater than 100.

What about the Ratio IC50 (Homo sapiens [2]) of the same molecule?
The Ratio IC50 was greater than 100.

What about the IC50 (Carbonic anhydrase 1) of the same molecule?
The IC50 was greater than 10000 nM.

And the IC50 (Carbonic anhydrase 9)?
Its IC50 is 29 nM.

For `NS(=O)(=O)c1cccc(Nc2nnc(-c3ccc(C(F)(F)F)cc3)c3ccccc23)c1`, which IC50 (Carbonic anhydrase 2) is on record?
Its IC50 is greater than 10000 nM.

And the IC50 (Carbonic anhydrase 1)?
The IC50 was greater than 10000 nM.

What about the IC50 (Carbonic anhydrase 9) of the same molecule?
Its IC50 is 690 nM.

With `NS(=O)(=O)c1ccc(Nc2nnc(-c3ccc(C(F)(F)F)cc3)c3ccccc23)cc1` as the molecule, how does the IC50 (Carbonic anhydrase 2) read?
Its IC50 is greater than 10000 nM.

And the IC50 (Carbonic anhydrase 1)?
The IC50 was greater than 10000 nM.

And the IC50 (Carbonic anhydrase 9)?
Its IC50 is greater than 3900 nM.

Which results are given for `COc1cccc(-c2nnc(Nc3ccc(S(N)(=O)=O)cc3)c3ccccc23)c1`?
IC50 (Carbonic anhydrase 2): > 10000 nM; IC50 (Carbonic anhydrase 1): > 10000 nM; IC50 (Carbonic anhydrase 9): 3930 nM

Which results are given for `NS(=O)(=O)c1ccc(Nc2nnc(-c3cccc(S(N)(=O)=O)c3)c3ccccc23)cc1`?
IC50 (Carbonic anhydrase 2): 455 nM; Ratio IC50 (Homo sapiens [1]): 24.5; Ratio IC50 (Homo sapiens [2]): > 1000; IC50 (Carbonic anhydrase 1): > 10000 nM; IC50 (Carbonic anhydrase 9): 18.5 nM

How did the IC50 (Carbonic anhydrase 2) turn out when `Nc1ccc(Nc2nnc(-c3cccc(S(N)(=O)=O)c3)c3ccccc23)cc1` was run?
The IC50 was 147 nM.

What about the Ratio IC50 (Homo sapiens [1]) of the same molecule?
The Ratio IC50 was 5.3.

What about the Ratio IC50 (Homo sapiens [2]) of the same molecule?
The Ratio IC50 was greater than 100.

And the IC50 (Carbonic anhydrase 1)?
The IC50 was greater than 10000 nM.

And the IC50 (Carbonic anhydrase 9)?
The IC50 was 28.3 nM.

What does the source list for `Cc1ccc(-c2nnc(Nc3ccc(S(N)(=O)=O)cc3)c3ccccc23)cc1S(N)(=O)=O`?
IC50 (Carbonic anhydrase 2): 547 nM; Ratio IC50 (Homo sapiens [1]): 1140; Ratio IC50 (Homo sapiens [2]): > 10000; IC50 (Carbonic anhydrase 1): > 10000 nM; IC50 (Carbonic anhydrase 9): 0.48 nM

Which IC50 (Carbonic anhydrase 2) does the source give for `COc1cccc(-c2nnc(Nc3cccc(S(N)(=O)=O)c3)c3ccccc23)c1` here?
Its IC50 is 61.8 nM.

And the IC50 (Carbonic anhydrase 1)?
The IC50 was 220 nM.

What about the IC50 (Carbonic anhydrase 9) of the same molecule?
The IC50 was greater than 690 nM.

With `NS(=O)(=O)c1ccc(Nc2nnc(-c3ccc(Cl)cc3)c3ccccc23)cc1` as the molecule, how does the IC50 (Carbonic anhydrase 2) read?
Its IC50 is greater than 10000 nM.

And the IC50 (Carbonic anhydrase 1)?
The IC50 was greater than 10000 nM.

And the IC50 (Carbonic anhydrase 9)?
Its IC50 is greater than 3900 nM.

How did the IC50 (Carbonic anhydrase 2) turn out when `COc1ccc(-c2nnc(Nc3cccc(S(N)(=O)=O)c3)c3ccccc23)cc1` was run?
Its IC50 is greater than 10000 nM.

And the IC50 (Carbonic anhydrase 1)?
The IC50 was greater than 10000 nM.

What about the IC50 (Carbonic anhydrase 9) of the same molecule?
Its IC50 is greater than 690 nM.

With `NS(=O)(=O)c1ccc(Nc2nnc(-c3ccccc3)c3ccccc23)cc1` as the molecule, how does the IC50 (Carbonic anhydrase 2) read?
The IC50 was greater than 10000 nM.

And the IC50 (Carbonic anhydrase 1)?
The IC50 was greater than 10000 nM.

And the IC50 (Carbonic anhydrase 9)?
The IC50 was greater than 3900 nM.

With `NS(=O)(=O)c1cccc(Nc2nnc(-c3ccc(Cl)cc3)c3ccccc23)c1` as the molecule, how does the IC50 (Carbonic anhydrase 2) read?
Its IC50 is greater than 10000 nM.

What about the IC50 (Carbonic anhydrase 1) of the same molecule?
The IC50 was greater than 10000 nM.

What about the IC50 (Carbonic anhydrase 9) of the same molecule?
The IC50 was greater than 690 nM.

With `Cc1cc(-c2nnc(Nc3ccc(S(N)(=O)=O)cc3)c3ccccc23)ccc1S(N)(=O)=O` as the molecule, how does the IC50 (Carbonic anhydrase 2) read?
The IC50 was 26.8 nM.

And the Ratio IC50 (Homo sapiens [1])?
Its Ratio IC50 is 8.1.

What about the Ratio IC50 (Homo sapiens [2]) of the same molecule?
The Ratio IC50 was 25.7.

And the IC50 (Carbonic anhydrase 1)?
The IC50 was 85.7 nM.

And the IC50 (Carbonic anhydrase 9)?
Its IC50 is 3.3 nM.
